Results: patent US7282342B2, “Methods for detecting weakly immunogenic analytes” (Neuren Pharmaceuticals Ltd., priority 2001, dated 2007)
Residues, ends and D or L forms follow the SMILES beside them.

Legend:
CK5 antibody [1] = assay: standard double antibody radioimmunoassay, displacement of I125-labeled YGPE; type: binding, rabbit; conditions: CK5 diluted 1:600; I125-labeled YGPE tracer
Method: The CK5 antibody was characterized using a standard double antibody radioimmunoassay technique. Tubes containing either 100 μL 0.02 M phosphate buffered saline assay buffer or peptide (GPE, YGPE (SEQ ID NO:4), KYFGGPE (SEQ ID NO:5), or IGF-1) dissolved in assay buffer at various concentrations were preincubated with CK5 antibody (diluted at 1:600) for 24 h at 4° C. I^125-labeled YGPE (10,000 cpm) was then added to the tubes. After a further 48 h incubation at 4° C., the bound and free GPE were separated by adding donkey anti-rabbit serum (1:100). The tubes were incubated with this second antibody overnight at 4° C. before centrifugation (3,200 rpm for 30 min), after which the supernatant was aspirated, and the precipitate counted in a gamma counter. One antibody, CK5, was identified. […] Unlabeled GPE was able to displace I^125-labeled YGPE with an ED50 of approximately 200 ng/tube.

CK5 antibody [2] = assay: modified double antibody radioimmunoassay, displacement of I125-labeled Bolton and Hunter derivatized GPE; type: binding, rabbit; conditions: test substances Bolton and Hunter derivatized; CK5 at 1:18,000

| Molecule | cross-reactivity with CK5 antibody (CK5 antibody [1]) | cross-reactivity with CK5 antibody (CK5 antibody [2]) |
| --- | --- | --- |
| IGF-1: insulin-like growth factor-1, the GPE parent molecule | does not cross-react significantly | does not cross-react significantly |
| NC(N)=O [urea] |  | does not cross-react significantly |
| NCC(=O)N1CCC[C@H]1C(=O)O [GP, glycyl-L-proline] (H-Gly-Pro-OH) |  | does not cross-react significantly |
| NCC(=O)O [glycine] |  | does not cross-react significantly |
| N[C@@H](CCC(=O)O)C(=O)O [glutamic acid] |  | does not cross-react significantly |
| O=C(O)[C@@H]1CCCN1 [proline] |  | does not cross-react significantly |
| O=C(O)CC[C@H](NC(=O)[C@@H]1CCCN1)C(=O)O [PE, L-prolyl-L-glutamic acid] (H-Pro-Glu-OH) |  | does not cross-react significantly |
